Converted amounts (≈) assume the structure as drawn.

The first assay has as its system Aspergillus fumigatus. In words: Antifungal activity against Aspergillus fumigatus 293 after 48 hrs by two-fold serial dilution method. The following applies: Af293, 48 h. The format is functional.
One may read the MIC as the smallest concentration in the dilution series that meets the test's criterion for growth inhibition. The low end stands for inhibition by little substance, the high end for a need for much substance. In the case of `CCOC(=O)c1c(NC(=O)CSCc2nc3cc([N+](=O)[O-])ccc3[nH]2)sc2c1CCCCC2`, the lowest concentration to inhibit growth (MIC) was 2560 µM.

`OC(Cn1cncn1)(Cn1cncn1)c1ccc(F)cc1F` [FLUCONAZOLE]: the minimal inhibitory concentration (MIC) is more than 2500 µg/mL.

The compound `N#Cc1sc(Nc2ccccc2)nc1NC(=O)CSCc1nc2cc([N+](=O)[O-])ccc2[nH]1` came in with an MIC of 5370 µM.

`N#CCSCc1nc2cc([N+](=O)[O-])ccc2[nH]1` returned an MIC of 5040 µM. The MIC values of the last two compounds are within 1.5-fold of each other.

The compound `CCOC(=O)CSCc1nc2cc([N+](=O)[O-])ccc2[nH]1` displayed an MIC of 2120 µM.

In turn, `CC1=NN(C(=O)CSCc2nc3cc([N+](=O)[O-])ccc3[nH]2)C(=O)C1` came in with a minimal inhibitory concentration (MIC) of more than 2500 µg/mL.

`O=C(CSCc1nc2cc([N+](=O)[O-])ccc2[nH]1)c1ccccc1` yielded an MIC of 7640 µM.

The next assay concerns Candida albicans. Briefly: Antifungal activity against Candida albicans after 48 hrs by two-fold serial dilution method.
Conditions: not given
The format is functional.
In turn, `CCOC(=O)c1c(NC(=O)CSCc2nc3cc([N+](=O)[O-])ccc3[nH]2)sc2c1CCCCC2` came in with an MIC of 1280 µM (≈ 625 µg/mL).

For `OC(Cn1cncn1)(Cn1cncn1)c1ccc(F)cc1F` [FLUCONAZOLE], the MIC worked out at 8160 µM (≈ 2500 µg/mL).

For the compound `N#Cc1sc(Nc2ccccc2)nc1NC(=O)CSCc1nc2cc([N+](=O)[O-])ccc2[nH]1`, it took 2690 µM (≈ 1250 µg/mL) to inhibit growth (MIC). Compared with the last compound, the MIC is about 3-fold lower.

Regarding `N#CCSCc1nc2cc([N+](=O)[O-])ccc2[nH]1`, the minimal inhibitory concentration (MIC) came out at 5040 µM (≈ 1250 µg/mL).

As for `CCOC(=O)CSCc1nc2cc([N+](=O)[O-])ccc2[nH]1`, the MIC came out at 2120 µM (≈ 625 µg/mL).

As to `CC1=NN(C(=O)CSCc2nc3cc([N+](=O)[O-])ccc3[nH]2)C(=O)C1`, the MIC stood at 7200 µM (≈ 2500 µg/mL). This MIC lies about 3.4-fold higher than the previous one.

Consider `O=C(CSCc1nc2cc([N+](=O)[O-])ccc2[nH]1)c1ccccc1`, for which 1910 µM (≈ 625 µg/mL) was the least that counted as inhibitory (MIC). This MIC is about 3.8-fold lower than that of the compound before.

Another assay concerns Chromobacterium violaceum. In words: Inhibition of quorum sensing system in Chromobacterium violaceum ATCC 12472 assessed as diameter of violacein pigment inhibition at 5 mg/ml after 48 hrs.
Conditions: not given
Turning to `Oc1cc(O)c2c(c1)O[C@H](c1ccc(O)c(O)c1)[C@@H](O)C2`, the Activity was 2 mm.

In the case of `CCOC(=O)c1c(NC(=O)CSCc2nc3cc([N+](=O)[O-])ccc3[nH]2)sc2c1CCCCC2`, the Activity was less than 2 mm.

For `N#Cc1sc(Nc2ccccc2)nc1NC(=O)CSCc1nc2cc([N+](=O)[O-])ccc2[nH]1`, the Activity is less than 2 mm.

As for `N#CCSCc1nc2cc([N+](=O)[O-])ccc2[nH]1`, the Activity is less than 2 mm.

On to `CCOC(=O)CSCc1nc2cc([N+](=O)[O-])ccc2[nH]1`, for which the Activity was less than 2 mm.

Regarding `CC1=NN(C(=O)CSCc2nc3cc([N+](=O)[O-])ccc3[nH]2)C(=O)C1`, the Activity is less than 2 mm.

Take `O=C(CSCc1nc2cc([N+](=O)[O-])ccc2[nH]1)c1ccccc1`: the Activity is less than 2 mm.

Another assay deals with Escherichia coli. In words: Antibacterial activity against Escherichia coli ATCC 12435 after 24 hrs by two-fold serial dilution method. The format is functional. The following applies: ATCC 12435, 24 h.
Turning to `CC1(C)S[C@@H]2[C@H](NC(=O)[C@H](N)c3ccccc3)C(=O)N2[C@H]1C(=O)O` [AMPICILLIN], inhibition of growth (MIC) required 55.9 µM. This lies in the double-digit micromolar range.

As for `CCOC(=O)c1c(NC(=O)CSCc2nc3cc([N+](=O)[O-])ccc3[nH]2)sc2c1CCCCC2`, the MIC is 2560 µM. Against the preceding compound, the MIC is about 46-fold higher.

`N#Cc1sc(Nc2ccccc2)nc1NC(=O)CSCc1nc2cc([N+](=O)[O-])ccc2[nH]1` had an MIC of more than 2500 µg/mL.

For the compound `N#CCSCc1nc2cc([N+](=O)[O-])ccc2[nH]1`, the MIC was more than 2500 µg/mL.

For the compound `CCOC(=O)CSCc1nc2cc([N+](=O)[O-])ccc2[nH]1`, 4230 µM was the least that counted as inhibitory (MIC). This counts as millimolar.

Turning to `CC1=NN(C(=O)CSCc2nc3cc([N+](=O)[O-])ccc3[nH]2)C(=O)C1`, the MIC was more than 2500 µg/mL.

Regarding `O=C(CSCc1nc2cc([N+](=O)[O-])ccc2[nH]1)c1ccccc1`, the minimum inhibitory concentration (MIC) is more than 2500 µg/mL.

In another assay the test system is Bacillus cereus. In words: Antibacterial activity against Bacillus cereus UW 85 after 24 hrs by two-fold serial dilution method. The format is functional. The following applies: UW 85, 24 h.
As to `CC1(C)S[C@@H]2[C@H](NC(=O)[C@H](N)c3ccccc3)C(=O)N2[C@H]1C(=O)O` [AMPICILLIN], the MIC was determined as 3580 µM.

`CCOC(=O)c1c(NC(=O)CSCc2nc3cc([N+](=O)[O-])ccc3[nH]2)sc2c1CCCCC2` came in with a minimal inhibitory concentration (MIC) of 2560 µM.

As to `N#Cc1sc(Nc2ccccc2)nc1NC(=O)CSCc1nc2cc([N+](=O)[O-])ccc2[nH]1`, the MIC amounted to 5370 µM.

In turn, `N#CCSCc1nc2cc([N+](=O)[O-])ccc2[nH]1` yielded an MIC of 5040 µM.

`CCOC(=O)CSCc1nc2cc([N+](=O)[O-])ccc2[nH]1` came in with an MIC of 2120 µM.

The compound `CC1=NN(C(=O)CSCc2nc3cc([N+](=O)[O-])ccc3[nH]2)C(=O)C1` returned a minimum inhibitory concentration (MIC) of more than 2500 µg/mL.

On to `O=C(CSCc1nc2cc([N+](=O)[O-])ccc2[nH]1)c1ccccc1`, for which the MIC is more than 2500 µg/mL.

The next assay has as its system Staphylococcus aureus. Briefly: Antibacterial activity against Staphylococcus aureus ATCC 29213 after 24 hrs by two-fold serial dilution method. The format is functional. Particulars: ATCC 29213, 24 h.
`CC1(C)S[C@@H]2[C@H](NC(=O)[C@H](N)c3ccccc3)C(=O)N2[C@H]1C(=O)O` [AMPICILLIN] returned an MIC of 894 µM.

In the case of `CCOC(=O)c1c(NC(=O)CSCc2nc3cc([N+](=O)[O-])ccc3[nH]2)sc2c1CCCCC2`, it took 2560 µM to inhibit growth (MIC).

The compound `N#Cc1sc(Nc2ccccc2)nc1NC(=O)CSCc1nc2cc([N+](=O)[O-])ccc2[nH]1` registered an MIC of 5370 µM.

The compound `N#CCSCc1nc2cc([N+](=O)[O-])ccc2[nH]1` displayed a minimal inhibitory concentration (MIC) of more than 2500 µg/mL.

With `CCOC(=O)CSCc1nc2cc([N+](=O)[O-])ccc2[nH]1`, the MIC was 2120 µM. In other words, the millimolar range.

For `CC1=NN(C(=O)CSCc2nc3cc([N+](=O)[O-])ccc3[nH]2)C(=O)C1`, the MIC was more than 2500 µg/mL.

In the case of `O=C(CSCc1nc2cc([N+](=O)[O-])ccc2[nH]1)c1ccccc1`, it took 3820 µM to inhibit growth (MIC).

Biological target in another assay: not listed separately
In words: Displacement of methyl green from DNA (unknown origin) incubated in dark for 24 hrs by colorimetric method.
Conditions: not given
The term IC50 denotes the midpoint of a concentration-inhibition curve. The compound `COc1cccc2c1C(=O)c1c(O)c3c(c(O)c1C2=O)C[C@@](O)(C(=O)CO)C[C@@H]3O[C@H]1C[C@H](N)[C@H](O)[C@H](C)O1` [DOXORUBICIN] showed an IC50 of 32.4 µM.

Another assay relates to HepG2. Briefly: Cytotoxicity against human HepG2 cells assessed as decrease in cell viability after 48 hrs by MTT assay. The format is functional, cell-based. The following applies: HepG2, 48 h.
In the case of `CCOC(=O)c1c(NC(=O)CSCc2nc3cc([N+](=O)[O-])ccc3[nH]2)sc2c1CCCCC2`, the IC50 is 7.39 µM.

Turning to `N#Cc1sc(Nc2ccccc2)nc1NC(=O)CSCc1nc2cc([N+](=O)[O-])ccc2[nH]1`, the 50% inhibitory concentration (IC50) is 9.48 µM.

With `N#CCSCc1nc2cc([N+](=O)[O-])ccc2[nH]1`, the IC50 came to 30.6 µM.

As for `CCOC(=O)CSCc1nc2cc([N+](=O)[O-])ccc2[nH]1`, the IC50 is more than 100 µM.

Consider `CC1=NN(C(=O)CSCc2nc3cc([N+](=O)[O-])ccc3[nH]2)C(=O)C1`, for which the IC50 stood at 7.33 µM.

On to `O=C(CSCc1nc2cc([N+](=O)[O-])ccc2[nH]1)c1ccccc1`, for which the half-inhibitory concentration (IC50) is 16.1 µM.

For the next assay, the system named is MCF7. In words: Cytotoxicity against human MCF7 cells assessed as decrease in cell viability after 48 hrs by MTT assay. The format is functional, cell-based. Particulars: MCF7, 48 h. For orientation: Tetrazolium assays rely on reduction of a dye to a coloured formazan, in cell work by metabolically active cells.
Turning to `CCOC(=O)c1c(NC(=O)CSCc2nc3cc([N+](=O)[O-])ccc3[nH]2)sc2c1CCCCC2`, the IC50 was determined as 10.3 µM.

As to `N#Cc1sc(Nc2ccccc2)nc1NC(=O)CSCc1nc2cc([N+](=O)[O-])ccc2[nH]1`, the half-inhibitory concentration (IC50) was 11.3 µM.

For `N#CCSCc1nc2cc([N+](=O)[O-])ccc2[nH]1`, the IC50 turned out to be 27.4 µM.

In the case of `CCOC(=O)CSCc1nc2cc([N+](=O)[O-])ccc2[nH]1`, the IC50 is more than 100 µM.

As to `CC1=NN(C(=O)CSCc2nc3cc([N+](=O)[O-])ccc3[nH]2)C(=O)C1`, the IC50 was determined as 8.07 µM.

As for `O=C(CSCc1nc2cc([N+](=O)[O-])ccc2[nH]1)c1ccccc1`, the IC50 stood at 18.6 µM.

The subject of the next assay is HCT-116. Briefly: Cytotoxicity against human HCT116 cells assessed as decrease in cell viability after 48 hrs by MTT assay. Particulars: HCT-116, 48 h. The format is functional, cell-based.
For `CCOC(=O)c1c(NC(=O)CSCc2nc3cc([N+](=O)[O-])ccc3[nH]2)sc2c1CCCCC2`, the IC50 came to 7.51 µM.

Consider `N#Cc1sc(Nc2ccccc2)nc1NC(=O)CSCc1nc2cc([N+](=O)[O-])ccc2[nH]1`, for which the IC50 amounted to 8.43 µM.

Turning to `N#CCSCc1nc2cc([N+](=O)[O-])ccc2[nH]1`, the half-inhibitory concentration (IC50) worked out at 28.2 µM.

As to `CCOC(=O)CSCc1nc2cc([N+](=O)[O-])ccc2[nH]1`, the 50% inhibitory concentration (IC50) was more than 100 µM.

`CC1=NN(C(=O)CSCc2nc3cc([N+](=O)[O-])ccc3[nH]2)C(=O)C1`: the IC50 was determined as 5.41 µM.

For the compound `O=C(CSCc1nc2cc([N+](=O)[O-])ccc2[nH]1)c1ccccc1`, the IC50 is 12.3 µM.

The values above are taken from ChEMBL document CHEMBL4118070, “Synthesis, antimicrobial, antiquorum-sensing and antitumor activities of new benzimidazole analogs” (Eur J Med Chem, 2017).
